Assay results from ChEMBL document CHEMBL5727788, “Amido-benzyl sulfone and sulfoxide derivates” (2020).

Biological target: Nicotinamide phosphoribosyltransferase (Homo sapiens, UniProt P43490)
Assay: Enzymatic Reaction Assay: The NAMPT enzymatic reactions were carried out in Buffer A (50 mM Hepes pH 7.5, 50 mM NaCl, 5 mM MgCl2, and 1 mM THP) in 96-well V-bottom plates. The compound titrations were performed in a separate dilution plate by serially diluting the compounds in DMSO to make a 100× stock. Buffer A (89 μL) containing 33 nM of NAMPT protein was added to 1 μL of 100× compound plate containing controls (e.g. DMSO or blank). The compound and enzyme mixture was incubated for 15 min at rt, then 10 μL of 10× substrate and co-factors in Buffer A were added to the test well to make a final concentration of 1 μM NAM, 100 μM 5-Phospho-D-ribose 1-diphosphate (PRPP), and 2.5 mM Adenosine 5′-triphosphate (ATP). The reaction was allowed to proceed for 30 min at rt, then was quenched with the addition of 11 μL of a solution of formic acid and L-Cystathionine to make a final concentration of 1% formic acid and 10 μM L-Cystathionine. Background and signal strength was determined by addition (or non-addition) of a serial dilution of NMN to a pre-quenched enzyme and cofactor mix.

Nicotinamide phosphoribosyltransferase, sequence (P43490 whole entry): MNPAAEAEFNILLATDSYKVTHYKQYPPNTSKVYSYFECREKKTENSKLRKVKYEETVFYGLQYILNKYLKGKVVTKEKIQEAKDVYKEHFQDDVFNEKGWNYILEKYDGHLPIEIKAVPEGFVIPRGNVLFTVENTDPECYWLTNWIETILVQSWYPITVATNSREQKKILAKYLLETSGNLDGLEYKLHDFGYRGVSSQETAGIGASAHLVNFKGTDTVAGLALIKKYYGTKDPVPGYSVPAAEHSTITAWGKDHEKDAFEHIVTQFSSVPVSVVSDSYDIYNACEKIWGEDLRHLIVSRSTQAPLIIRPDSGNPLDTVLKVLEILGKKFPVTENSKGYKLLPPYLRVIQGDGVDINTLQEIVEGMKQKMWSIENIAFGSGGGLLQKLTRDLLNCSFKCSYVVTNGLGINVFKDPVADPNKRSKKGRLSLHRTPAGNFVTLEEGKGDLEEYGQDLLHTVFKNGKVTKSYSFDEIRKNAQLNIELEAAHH

Row | Structure (SMILES) | IC50
1 | CC(C)N1CCN(S(=O)(=O)c2ccc(CNC(=O)c3ccc4nccn4c3)cc2)CC1 | 48.4 nM
2 | CCN1CCC([S+]([O-])c2ccc(CNC(=O)c3ccc4nccn4c3)cc2)CC1 (stereo not drawn) | 43.4 nM
3 | O=C(NCc1ccc(S(=O)(=O)N2CC3COCC3C2)cc1)c1cnc2[nH]ncc2c1 (mixture of isomers) | 150 nM
